For series [1] the following is noted: mouse, in vivo.
Procedure: The 5F peptide, MoAI, and human apo A-I were labeled with ^125I by the method of Bilheimer et al. (1972) Biochim. Biophys. Acta 260: 212–221. Mice were placed on a modified Thomas-Hartroft atherogenic diet (#TD88051; Teklad, Madison, Wis.) for four weeks at which time daily intraperitoneal injections of peptide or protein dissolved in 200 μl phosphate-buffered saline (PBS) were begun. Animals injected with MoAI or human apo A-I received 50 μg per animal; those injected with 5F received 20 μg. Animals were not fasted for the kinetic studies and blood samples were taken under xylazine:ketamine anesthesia from the retro-orbital sinus at 15, 30, and 45 minutes, and 1, 1.5, 2, 3, 4, 6, 8, 12, and 24 hours following injection. Each animal provided three blood samples at different time points (all retro-orbital and alternating eyes), and at least three samples were collected (from different animals) at each time point. Samples were collected into heparinized capillary tubes, then placed in microcentrifuge tubes; the plasma was separated by centrifugation. Duplicate 10 μl aliquots of each sample were taken for radioactivity determination, using gamma counting (Cobra; Packard Instruments, Downers Grove, Ill.) for 10 minutes per sample. Total plasma volume was calculated as 4.2% body weight. Each sample was expressed as percent of injected CPM in total plasma. Free ^125I was determined by trichloroacetic acid (TCA) precipitation (1 ml of 10% TCA per 10 μl plasma sample). Fitting to the kinetic model was done using all data points, rather than averages at each time point (PKAnalyst, MicroMath Scientific Software, Salt Lake City, Utah).
Treatment groups were compared by two-tailed t-tests or one way analysis of variance (where the data were normally distributed), or by one way analysis of variance on ranks (SigmaStat; SPSS Science, Chicago, Ill.). Kinetics of peptide or protein turnover were analyzed by fitting to a first order one-compartment kinetic model assuming non-equal input and output rates (PKAnalyst; MicroMath Scientific Software, Salt Lake City, Utah).
Series [2] is described as follows: Right angle light scattering, dissolution of EPC MLVs. The class given is physicochemical. The settings on record: 105 μM EPC, equimolar peptide, 25° C., 30 min. The protocol:
EPC MLVs were prepared by evaporating a solution of EPC (Avanti Polar, AL) under nitrogen and hydrating the lipid film with phosphate-buffered saline (pH 7.4). […] Turbidity clarification was monitored for 30 min.

Series [3] in a line: Antibody detection by indirect ELISA after 16 weeks of daily injection. The class given is in vivo, mouse. The settings on record: plasma at conclusion of 16-week injection period. On the procedure:
To determine whether daily injections of peptides elicited any immune response in mice, indirect ELISA titration (Engvall (1980) Meth. Enzymol. 70:419–439) was carried out with plasma taken from mice at the time of organ collection (following sixteen weeks of daily injection). Plates were coated with the injected peptides or MoAI (10 μg/ml). Plates were incubated overnight. After thorough washing with borate buffered saline (pH 8.2) containing 0.05% Tween 20, and blocking with buffer (0.1% gelatin and 0.1% BSA in borate buffer) for 1 h, 200 μl of the diluted mouse plasma (1:100 dilution) samples were serially diluted 1:1 with borate-buffered saline. Biotinylated goat antibody to mouse IgG (0.1 μg/ml) was then added to the wells and the plates were treated with SA-HRP (Streptavidin-horse radish peroxidase) for an hour and developed with ABTS and peroxide as substrate. The plates were incubated overnight at room temperature after every addition of antigen/antibody and washed thoroughly with borate buffered saline (pH 8.2) containing 0.05% Tween 20, and blocked with buffer (0.1% gelatin and 0.1% BSA in borate buffer) for 1 h before the next addition.
(In general: In an ELISA, binding on a coated surface is turned into a signal by an enzyme label.)

A further series has as its system human artery wall cells. Briefly: Lipoproteins from 5F-injected mice tested in human artery wall cell cocultures (lipid hydroperoxides, monocyte chemotactic activity). The class given is cell-based. The settings on record: 20 μg/mouse/day. The protocol:
Cocultures of human artery wall cells, monocyte isolation, isolation of lipoproteins by ultracentrifugation from the plasma of normal human donors or from mouse plasma by FPLC, and determination of lipid hydroperoxides and monocyte chemotactic activity were performed according to standard methods. All human subject participation was with informed consent approved by the UCLA Human Subjects Protection Committee. The protocol for testing mouse lipoproteins in the coculture was also performed as follows: Briefly, LDL and HDL were isolated by FPLC from mouse plasma from mice fed the atherogenic diet and injected with vehicle (PBS), or with peptide 5F at 20 μg/mouse/day. The cocultures were treated with human LDL at 200 μg/ml LDL protein, or mouse LDL at 200 μg/ml or with 200 μg/ml human LDL+human HDL at 350 μg/ml of HDL protein or mouse HDL at 300 μg/ml or with mouse HDL alone at 300 μg/ml. […] The supernatants were collected and analyzed for Auerbach lipid hydroperoxide equivalents.

The target in series [4] is T1, lecithin:cholesterol acyl transferase (LCAT) (Homo sapiens, UniProt P04180).
T1 construct: LCAT was isolated from fresh normolipidemic plasma by the method of Albers et al; from tissue; host or cells: fresh normolipidemic plasma
T1 sequence (P04180 25-440): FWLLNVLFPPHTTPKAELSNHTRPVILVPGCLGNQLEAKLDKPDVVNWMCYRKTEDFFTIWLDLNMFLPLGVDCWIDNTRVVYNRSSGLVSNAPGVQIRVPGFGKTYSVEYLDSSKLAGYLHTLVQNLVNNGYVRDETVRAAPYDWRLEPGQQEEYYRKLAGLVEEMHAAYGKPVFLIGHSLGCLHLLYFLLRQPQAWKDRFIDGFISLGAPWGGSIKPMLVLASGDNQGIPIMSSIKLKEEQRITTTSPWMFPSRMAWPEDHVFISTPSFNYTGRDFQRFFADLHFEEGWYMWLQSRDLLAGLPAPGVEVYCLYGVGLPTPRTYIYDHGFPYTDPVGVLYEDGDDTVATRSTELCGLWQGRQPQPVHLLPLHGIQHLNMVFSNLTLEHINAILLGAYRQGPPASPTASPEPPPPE
Briefly: Assay of LCAT activity. Type of series: biochemical. The settings on record: 20 μg/ml peptide, egg PC-cholesterol vesicles. On the procedure: LCAT was isolated from fresh normolipidemic plasma by the method of Albers et al. (1986) Methods Enzymol. 129: 763–783, with some modifications. The density of the plasma was adjusted to 1.21 g/ml and it was centrifuged at 175,000 g for 24 h. The LCAT containing fraction was subjected to Affi-Gel Blue chromatography followed by DE-52 chromatography. LCAT was eluted from the DE-52 column using a 75 to 200 mM NaCl gradient in Tris buffer (10 mM, pH 7.6).
The substrate was prepared by sonicating egg PC/cholesterol (90:20 mol/mol) containing trace amounts of 7α-^3H cholesterol in a Branson 250 sonifier for 12 mins to obtain small unilamellar vesicles. The substrate (50 μl) was incubated with 5 μg of peptide or human apo A-I and 50 μl of BSA (40 μg/ml) for 1 h at 37° C. The total volume was brought up to 150 μl. After incubating for 1 h, 100 μl of LCAT was added and incubated for 1 h at 37° C. and the reaction was quenched by spotting 10 μl on a silica strip. Cholesterol and cholesteryl ester were separated by thin layer chromatography of the silica strip in hexane:chloroform (2:1 v/v) mixture. […] The positions of the standards were used to cut the strip into two and the two parts were counted in scintillation fluid in a Packard Tri Carb 4530. […] The activation of LCAT by the peptides is expressed as a percentage of the total activation by apo A-I .

Series [5] can be described thus: Plasma cholesterol lipoprotein profiles (CLiP). The class given is in vivo, mouse. As to conditions: 16 weeks atherogenic diet, daily i.p. On the procedure:
Plasma cholesterol lipoprotein profiles were measured using our recently-developed CLiP method (Garber et al. (2000) J. Lipid Res. 41:1020–1026). Briefly, 5 to 10 μl of plasma were analyzed using a single Superose 6 (Pharmacia, Piscataway N.J.) column. Immediately following the column, cholesterol reagent was introduced through a mixing tee, and the eluent:reagent mixture entered a post-column reaction coil. Cholesterol content of the eluent mixture was spectrophotometrically detected at 500 nm, and data points were collected into a computer. The resulting profiles were decomposed into component peaks and analyzed for relative area using PeakFit (SPSS Science, Chicago, Ill.); absolute cholesterol values for total cholesterol and each component peak were determined by comparison with a control sample of known values. In some cases fractions were collected to determine distribution of radioactivity. The CLiP method allowed analysis of individual mouse samples, avoiding the use of pooled samples.

On to “Ac-DWLKAFYDKVFEKFKEFF-NH2 [Peptide 5F, Ac-D-W-L-K-A-F-Y-D-K-V-F-E-K-F-K-E-F-F-NH2]”, for which the “T½” value in series [1] (C57BL/6J, ip) is reported as 6.22 h. The “Max. % in plasma” value in series [1] is recorded as 14.29%. For the same substance, in series [2], the “clarification of EPC MLVs” value was “clarified the EPC MLVs to a similar extents”. Besides, in series [3], the “antibodies against the injected material” value is on record as “No antibodies were detected”. Moreover, the “ability of HDL from injected mice to inhibit human LDL oxidation and LDL-induced monocyte chemotactic activity” value in the series with human artery wall cells (mouse HDL 300 μg/ml with human LDL 200 μg/ml) was “as effective in inhibiting human LDL oxidation and preventing LDL-induced monocyte chemotactic activity in the cocultures as was normal human HDL”. For the same substance, the “oxidation of, and monocyte chemotactic activity induced by, LDL from injected mice versus PBS” value in the series on human artery wall cells (mouse LDL 200 μg/ml) was “less readily oxidized and induced less monocyte chemotactic activity”. Besides, the “LCAT activation relative to apo A-I (100%)” value in series [4] is listed as 80 % of apo A-I. Also, in series [5], the “HDL as percent of total cholesterol” value is “(9.24 ± 1.18%*)”, the “IDL + LDL as percent of total cholesterol” value is listed as “(42.80 ± 2.51%)” and the “VLDL as percent of total cholesterol” value is “(47.96 ± 3.26%)”. Also, in series [5] (mean ± SEM), the HDL cholesterol came out at 17.92 ± 2.91 mg/dL, the “IDL + LDL cholesterol” value was determined as 83.37 ± 8.15 mg/dL, the “TC (total cholesterol)” value was 201.63 ± 25.21 mg/dL and the VLDL cholesterol amounted to 100.34 ± 15.72 mg/dL.

The record behind these values is patent publication US7144862B2, “Orally administered peptides to ameliorate atherosclerosis” (The Regents of the University of California, priority 2000, dated 2006).
